The conditions of the series: buffer.

SMILES strings stand for the structures.

This note sets out measurements from patent publication US12187756B2 (priority 2018, dated 2025).

In the case of `CC(=O)NC1[C@H](O[C@@H]2C(CO)O[C@H](O[C@H]3C(CO)O[C@@H](O[C@@H]4C(O)[C@@H](COP(=O)(O)OCCCCCN)OC(CO)[C@H]4O)C(NC(C)=O)[C@H]3O[C@@H]3OC(CO)[C@@H](O)[C@H](O)C3O)[C@@H](O)C2O)OC(CO)[C@H](O)[C@@H]1O[C@@H]1OC(CO)[C@@H](O)[C@H](O)C1O` (stereo partly shown) [compound 33], the “compound remaining intact (HPLC)” value is 50%.
